Measurements taken from patent US5264457A, “Phenyl amidines sulfonamides useful as platelet aggregation inhibitors” (G. D. Searle & Co., priority 1992, dated 1993).
pIC50: −log10 of the molar value.

Test system: platelet aggregation in dog PRP
Test: In-vitro platelet aggregation in PRP (ADP-induced, dog platelet-rich plasma)
Type: cell-based
Conditions: Canis lupus familiaris; for pIC50: concentration inhibiting aggregation by 50%; for inhibition at 10 µM: test concentration of 10 μM
Description: Compounds of the invention were evaluated by an […] assay to determine compound activity as an inhibitors of platelet aggregation.
Healthy male or female dogs were fasted for 8 hours prior to drawing blood; then 30 mL whole blood was collected using a butterfly needle and 30 cc plastic syringe with 3 ml of 0.129M buffered sodium citrate (3.8%). The syringe was rotated carefully as blood was drawn to mix the citrate. Platelet-rich plasma (PRP) was prepared by centrifugation at 975×g for 3.17 minutes at room temperature, allowing the centrifuge to coast to a stop without braking. The PRP was removed from the blood with a plastic pipette and placed in a plastic capped, 50 ml Corning conical sterile centrifuge tube which was held at room temperature. Platelet poor plasma (PPP) was prepared by centrifuging the remaining blood at 2000×g for 15 minutes at room temperature allowing the centrifuge to coast to a stop without braking. The PRP was adjusted with PPP to a count of 2-3×10^8 s platelets per ml. 400 μL of the PRP preparation and 50 μL of the compound to be tested or saline were preincubated for 1 minute at 37° C. in a BioData aggregometer (BioData, Horsham, Pa.). 50 μL of adenosine 5'diphosphate (ADP) (50 μm final concentration) was added to the cuvettes and the aggregation was monitored for 1 minute. All compounds are tested in duplicate. Inhibition of aggregation for each sample was determined using the formula: % inhibition=(Tinh -Tbas)/(Tagg -Tbas ×100 where Tbas is % of light transmission in PRP (baseline), Tagg is % of light transmission in the aggregated PRP sample (saline control) and Tinh is % of light transmission in the sample containing the inhibitor.

SMILES: Cc1ccc(S(=O)(=O)NCC(CC(=O)O)NC(=O)CCCCc2ccc(C(=N)N)cc2)cc1 (racemic) [Example 1, (±)-3-[[5-[4-(Aminoiminomethyl)phenyl]-1-oxopentyl]amino]-4-[[(4-methylphenyl)sulfonyl]amino]butanoic acid]
- pIC50: 6.00
- inhibition at 10 µM: 100%

SMILES: COc1ccc(S(=O)(=O)NCC(CC(=O)O)NC(=O)CCCCc2ccc(C(=N)N)cc2)cc1 (racemic) [Example 2, (±)-3-[[5-[4-(Aminoiminomethyl)phenyl]-1-oxopentyl]amino]-4-[[(4-methoxyphenyl)sulfonyl]amino]butanoic Acid]
- pIC50: 5.10
- inhibition at 10 µM: 100%

SMILES: CCOC(=O)CC(CNS(=O)(=O)c1ccc(C)cc1)NC(=O)CCCCc1ccc(C(=N)N)cc1 (racemic) [Example 3, (±) Ethyl-3-[[5-[5-(Aminoiminomethyl)phenyl]-1-oxopentyl]amino]-4-[[(4-methylphenyl)sulfonyl]amino]butanoate]
- inhibition at 10 µM: 20%
